Measured values from PubChem BioAssay (NCI).
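Following 48 hours of exposure in 96-well plates, responses at five concentrations were used to interpolate endpoints linearly. Here, GI50 denotes the concentration required for 50% inhibition of growth. The concentration for full growth arrest is given as TGI.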

How the values were obtained:
Experiment in all cases: growth of human tumour cells (NCI), 48 h
A549 NSCLC = system: A549 NSCLC
HCT-15 colon = system: HCT-15 colon
HL-60(TB) leukemia = system: HL-60(TB) leukemia
NCI-H460 lung = system: NCI-H460 lung
SN12C renal = system: SN12C renal
SW-620 colon = system: SW-620 colon
T-47D breast = system: T-47D breast
UACC-257 melanoma = system: UACC-257 melanoma
UO-31 renal = system: UO-31 renal
CAKI-1 renal = system: CAKI-1 renal

Structure (SMILES) | GI50 (A549 NSCLC) [µM] | TGI (A549 NSCLC) [µM] | GI50 (HCT-15 colon) [µM] | TGI (HCT-15 colon) [µM] | GI50 (HL-60(TB) leukemia) [µM] | TGI (HL-60(TB) leukemia) [µM] | GI50 (NCI-H460 lung) [µM] | TGI (NCI-H460 lung) [µM] | GI50 (SN12C renal) [µM] | TGI (SN12C renal) [µM] | GI50 (SW-620 colon) [µM] | TGI (SW-620 colon) [µM] | GI50 (T-47D breast) [µM] | TGI (T-47D breast) [µM] | GI50 (UACC-257 melanoma) [µM] | TGI (UACC-257 melanoma) [µM] | GI50 (UO-31 renal) [µM] | TGI (UO-31 renal) [µM] | TGI (CAKI-1 renal) [µM] | GI50 (CAKI-1 renal) [µM]
C=C1C(=O)O[C@H]2[C@H]1CC/C(CNS(=O)(=O)c1ccc3ccccc3c1)=C\CC[C@@]1(C)O[C@@H]21 | 10.9 | 25 | 1.27 | 2.77 | 1.63 | 3.96 | 8.14 | 24.3 | 2.15 | 7.13 | 1.01 | 2.44 | 1.92 | 4.64 | 1.9 | 4.54 | 1.34 | 2.78 |  | 
C[N+](C)([O-])CCCNc1c2ccccc2nc2cccc([N+](=O)[O-])c12 |  | 0.795 |  | 4.93 |  | 4.22 |  | 0.707 |  | 1.43 |  |  |  | 3.62 |  | 2.25 |  | 4.34 | 11.6 | 
Cc1cc2c(cc1C)[n+](=O)c(C(=O)/C=C/c1ccc(Cl)cc1)c(C)n2[O-] |  | 80.4 |  | > 100 |  | > 100 |  | 62.7 |  | > 100 |  | > 100 |  |  |  | 89.9 |  | 39.6 | > 100 | 
CC/C=C\C/C=C\C[C@H](O)C/C=C1/C(=O)C=C[C@H]1C/C=C\CCC(=O)OC | > 8.25 | > 8.25 | 1.85 | 6.47 | 2.49 | > 8.25 | > 8.25 | > 8.25 | 2.62 | > 8.25 | 2.19 | > 8.25 | 2.93 | > 8.25 |  |  | 7.58 | > 8.25 | > 8.25 | 6.01
CC1CCC2(NC1)OC1CC3[C@@H]4CC=C5C=CCC[C@]5(C)C4CC[C@]3(C)C1C2C (stereo partly specified) |  | 58.5 |  | 48.8 |  | 29.7 |  | 34.1 |  | 85.8 |  | 41.2 |  |  |  | 49 |  | 68.7 | > 100 | 
O=C(Cn1c(=O)c(-c2ccccc2)nc2ccccc21)c1cccnc1 | > 100 | > 100 | > 100 | > 100 |  |  | > 100 | > 100 | > 100 | > 100 | > 100 | > 100 | > 100 | > 100 | > 100 | > 100 | > 100 | > 100 | > 100 | > 100
COc1ccc(Nc2ncccc2/C=C/C(=O)c2cc(OC)c(OC)c(OC)c2)cc1 |  |  | 1.66 | 5.06 |  |  | 2.01 | 4.25 | 1.56 | 3.44 | 1.2 | 2.43 | 1.67 | 4.03 | 1.53 | 2.92 | 1.12 | 2.33 | 3.88 | 1.52
CCNc1c(C(=O)N(CC)CC)c(=O)[nH]c2ncccc12 |  | > 100 |  | > 100 |  | > 100 |  | > 100 |  | > 100 |  | > 100 |  |  |  | > 100 |  | > 100 | > 100 | 
